Test results published in US20220105157A1, “Compositions and Methods for Promoting Angiogenesis in the Eye” (The Regents of the University of California, priority 2019, published 2022).

Key:
[1] = test system: bovine aortic endothelial (BAE) cells; assay: BAE endothelial cell proliferation assay (alamar blue); type: cell-based
Protocol: The bovine endothelial proliferation assays were performed essentially as previously described (63, 64). BCE (1×10^3 cells/well) or BRE (5×10^2 cells/well) cells were seeded in 96-well plates in the culture medium (DMEM-low glucose supplemented with 10% BCS, 2 mM glutamine and antibiotics) plus testing materials with a total volume of 200 μl per well. BAE cells were plated in 96-well plates at a density of 2×10^3 cells in the culture medium (DMEM-low glucose supplemented with 1% BCS and antibiotics) plus testing material with a total volume of 200 μl per well. HRME cells were seeded at a density of 1×10^3 cells/well in gelatin-coated 96-well plates in assay medium (DMEM-low glucose supplemented with 20% FBS and antibiotics) plus testing materials to make a total volume 200 μl per well. For assays involving antibodies or small-molecule inhibitors, inhibitors or vehicle controls were first added and then test materials were added one hour later. After 6 days (unless otherwise specified), cells were incubated with alamar blue for 4 h. Fluorescence was measured at 530 nm excitation wavelength and 590 nm emission wavelength. Each experiment was carried out in duplicate/triplicate and repeated at least three times.

[2] = test system: BAE cells; assay: BrdU incorporation assay; type: cell-based, bovine; conditions: LIF 48 hours
Protocol: BAE cells were plated at the density of 2×10^4 cells/well with 1 ml of culture medium (DMEM-low glucose plus 10% BCS) in a 12-well plate with a 18-mm poly-D-lysine-treated coverslip in each well, incubating at 37° C. overnight. After removal of culture medium, cells were incubated in 0.5 ml of DMEM-low glucose plus 1% BCS. LIF (10 ng/ml) and vehicle control (0.1% BSA in PBS) were added to the cells. Upon LIF treatment for 48 hours, cells were subjected to BrdU incorporation by adding 2.5 μl of 2 mM BrdU in DMSO to each well to a final concentration 10 μM and incubating for 4 hours. Then, cells are subjected to BrdU immunofluorescence staining using an antibody against BrdU conjugated with Fluor alexa-488 (Biolegend, CAT #364106, 1:400). Briefly, BrdU labeling medium was removed from the culture plates and cells were fixed with 3.7% formaldehyde in PBS at room temperature for 15 minutes. Cell DNAs were denatured with 1N HCl on ice for 10 minutes and 2N HCl at room temperature for 10 minutes following cell permeabilization with 0.1% Triton X-100 in PBS (PBST). […] Four fields were randomly selected for each sample and the BrdU-positive nuclei as well as total nuclei (DAPI-positive) were counted manually; the percentages of BrdU-positive cells were determined by dividing the numbers of BrdU-positive nuclei with the numbers of total nuclei. […]

[3] = test system: choroid capillaries of NaIO3-treated mice; assay: Sodium iodate (NaIO3) model, choroid capillary recovery; type: in vivo, mouse; conditions: NaIO3 20 mg/kg i.v.; intravitreal LIF 50 ng, CT-1 different doses, OSM 10 ng; OCT-A
Protocol: Eight-week-old C57BL/6J mice were anesthetized with ketamine/xylazine cocktail. Sterilized NaIO3 was administered as a single intravenous injection (20 mg/kg body weight) (28) (29). Control mice were injected with PBS. PBS, LIF (50 ng), CT-1 (different doses) or OSM (10 ng) was injected intravitreally in five-mice groups. Five, seven and nine days after injection, choroid capillaries were monitored by OCT-A system. 9 days after injection, mice were killed and eyes were harvested for H&E and immunofluorescent staining. Avascular area in choroid capillaries was analyzed using ImageJ.

[4] = test system: phosphorylation of STAT3, ERK and AKT in BCE cells; assay: Western blotting of LIF signaling in BCE cells; type: cell-based, bovine; conditions: LIF treatment for 15 minutes
Protocol: BCE and BAE cells were cultured in growth medium overnight. Growth medium was removed and then cells were washed twice with PBS. Recombinant human LIF was added to cells for 15 minutes, following 3-hour incubation in the following medium: DMEM-low glucose supplemented with 10% BCS, 2 mM glutamine and antibiotics for BCE cells, and DMEM-low glucose supplemented with 1% BCS and antibiotics for BAE cells. […] Cells were then lysed with RIPA lysis buffer (Life Technologies, CAT #89901) plus protease and phosphatase inhibitor cocktail (ThermoFisher Scientific CAT #78440). Protein concentrations in cell lysates were measured with the BCA assay (ThermoFisher Scientific CAT #23227). Equal amount of proteins were subjected to electrophoresis in NuPAGE 4-12% Bis-Tris gels (ThermoFisher Scientific, CAT #NW04125BOX) and then transferred onto PVDF membranes. Membranes were blocked with 5% non-fat milk in TBST at room temperature for 1 hour, incubated with primary antibodies indicated below in TBST containing 0.5% non-fat milk at 4° C. overnight then with secondary HRP-conjugated antibodies (1:2000, GE Healthcare) at room temperature for 1 h. Signals were developed with SuperSignal™ West Pico PLUS Chemiluminescent Substrate (ThermoFisher Scientific). Primary antibodies used: anti-phospho-STAT3 (Cell Signaling, CAT #9131, 1:3000), anti-STAT3 (Cell Signaling, CAT #4904, 1:3000), anti-phospho-ERK (Cell Signaling, CAT #4376, 1:5000), anti-ERK (Cell Signaling, CAT #4695, 1:5000), anti-phospho-AKT Ser473 (Cell Signaling, CAT #4060, 1:2000), anti-AKT (Cell Signaling, CAT #4691, 1:2000) and HRP-conjugated anti-beta-actin (Sigma, CAT #AC-15, 1; 10000).

[5] = test system: guinea pig skin; assay: Vessel permeability in guinea pig skin (Evans blue); type: in vivo; conditions: intradermal 1, 5, 25, 100, 200 ng per injection site
Protocol: In FIG. 5A, Hairless male guinea pigs (Crl: HA-Hrhr/IAF, 450-500 g, Charles River Laboratories) were anesthetized by intraperitoneal (i.p.) administration of xylazine (5 mg/kg) and ketamine (75 mg/kg). The animals then received an intravenous injection (penile vein) of 1 ml of 1% Evans blue dye. After 15 min, intradermal injections (0.05 ml/per site) of different doses (1, 5, 25, 100, 200 ng per injection site) of rhLIF in PBS were administrated into the area of trunk posterior to the shoulder. 0.05 ml of PBS and 25 ng of VEGF in 0.05 ml of PBS were injected as negative and positive controls. 30 min after the intradermal injections, animals were euthanized by i.p. injection of pentobarbital (200 mg/kg). Skin tissues were dissected from the connective tissues and photographed, n=2. In FIG. 5B, Vascular leakage is shown in mouse retina. LIF (10 ng) or VEGF (100 ng) was injected in the vitreous cavity (0.1% BSA/PBS as control). TRITC-dextran was used to indicate the vascular leakage. Retinal vasculature was labeled by FITC-lectin, n=5.

LIF: recombinant human leukemia inhibitory factor, a member of the IL-6 family of cytokines
BAE cell growth [1]: growth inhibition | BrdU incorporation compared to the vehicle control [2]: significantly reduced | avascular areas in choroid compared to PBS group [3]: reduced avascular areas | AKT phosphorylation [4]: little effects | phosphorylation of ERK [4]: elicited phosphorylation | phosphorylation of STAT3 [4]: elicited phosphorylation | vascular permeability in guinea pig skin [5]: does not induce vascular permeability
